Test results reported in ChEMBL document CHEMBL4014287, “Jesridonin in combination with paclitaxel demonstrates synergistic anti-tumor activity in human esophageal carcinoma cells” (Bioorg Med Chem Lett, 2017).
Calls of active or inactive are those of the source. The rule behind the calls is not given here.

How the values were obtained:
ECa-109 cell line [1] = assay: Induction of apoptosis in human EC109 cells assessed as nuclear condensation at 15 uM after 24 hrs by Hochest 33258 staining based fluorescent microscopic analysis; assay type: functional, cell-based
ECa-109 cell line [2] = assay: Induction of apoptosis in human EC109 cells assessed as late apoptotic cells at 15 uM after 24 hrs in presence of paclitaxel by Annexin V-FITC/propidium iodide staining based flow cytometry (reference value: 1%); assay type: functional
ECa-109 cell line [3] = assay: Induction of apoptosis in human EC109 cells assessed as decrease in Bcl-XL level at 15 uM in presence of 5 nM paclitaxel by Western blot method; assay type: functional, cell-based
Mus musculus [4] = assay: Toxicity in nude mouse xenografted with human EC109 cells assessed as body weight loss at 10 mg/kg measured after 21 days; assay type: organism-based; conditions: in vivo, 504 h
ECa-109 cell line [5] = assay: Induction of apoptosis in human EC109 cells assessed as decrease in pro-caspase 9 expression at 15 uM in presence of 5 nM paclitaxel by Western blot method; assay type: functional, cell-based
ECa-109 cell line [6] = assay: Antitumor activity against human EC109 cells xenografted in nude mouse assessed as reduction in tumor volume at 10 mg/kg in presence of 5 mg/kg paclitaxel measured after 21 days; assay type: functional, organism-based
ECa-109 cell line [7] = assay: Induction of apoptosis in human EC109 cells assessed as increase in Bak level at 15 uM in presence of 5 nM paclitaxel by Western blot method; assay type: functional, cell-based
Mus musculus [8] = assay: Hepatotoxicity in nude mouse xenografted with human EC109 cells at 10 mg/kg in presence of paclitaxel measured after 21 days by histopathological analysis; assay type: toxicity, organism-based; conditions: in vivo, 504 h
ECa-109 cell line [9] = assay: Cytotoxicity against human EC109 cells assessed as combination index at 5 uM in presence of 2.5 nM paclitaxel; assay type: functional
Mus musculus [10] = assay: Cardiotoxicity in nude mouse xenografted with human EC109 cells at 10 mg/kg in presence of paclitaxel measured after 21 days by histopathological analysis; assay type: toxicity, organism-based; conditions: in vivo, 504 h
Mus musculus [11] = assay: Hepatotoxicity in nude mouse xenografted with human EC109 cells assessed as change in serum ALT level at 10 mg/kg in presence of paclitaxel measured after 21 days; assay type: toxicity, organism-based; conditions: in vivo, 504 h
Mus musculus [12] = assay: Toxicity in nude mouse xenografted with human EC109 cells assessed as effect on lungs at 10 mg/kg in presence of paclitaxel measured after 21 days by histopathological analysis; assay type: organism-based; conditions: in vivo, 504 h
ECa-109 cell line [13] = assay: Cytotoxicity against human EC109 cells assessed as combination index at 15 uM in presence of 5 nM paclitaxel; assay type: functional
ECa-109 cell line [14] = assay: Induction of apoptosis in human EC109 cells assessed as decrease in pro-caspase 3 expression at 15 uM in presence of 5 nM paclitaxel by Western blot method; assay type: functional, cell-based
ECa-109 cell line [15] = assay: Cytotoxicity against human EC109 cells assessed as combination index at 30 uM in presence of 5 nM paclitaxel; assay type: functional
ECa-109 cell line [16] = assay: Cytotoxicity against human EC109 cells assessed as reduction in cell viability after 24 hrs by MTT assay; assay type: functional, cell-based
Mus musculus [17] = assay: Toxicity in nude mouse xenografted with human EC109 cells assessed as pathological changes at 10 mg/kg measured after 21 days; assay type: organism-based; conditions: in vivo, 504 h
ECa-109 cell line [18] = assay: Induction of apoptosis in human EC109 cells assessed as decrease in Bcl-2 level at 15 uM in presence of 5 nM paclitaxel by Western blot method; assay type: functional, cell-based
ECa-109 cell line [19] = assay: Antitumor activity against human EC109 cells xenografted in nude mouse assessed as increase in apoptotic cells at 10 mg/kg in presence of paclitaxel measured after 21 days by TUNEL assay; assay type: functional, organism-based
Mus musculus [20] = assay: Nephrotoxicity in nude mouse xenografted with human EC109 cells at 10 mg/kg in presence of paclitaxel measured after 21 days by histopathological analysis; assay type: toxicity, organism-based; conditions: in vivo, 504 h
ECa-109 cell line [21] = assay: Antitumor activity against human EC109 cells xenografted in nude mouse assessed as decrease in tumor weight at 10 mg/kg in presence of 5 mg/kg paclitaxel measured after 21 days; assay type: functional, organism-based
Mus musculus [22] = assay: Toxicity in nude mouse xenografted with human EC109 cells assessed as body weight loss at 10 mg/kg in presence of paclitaxel measured after 21 days; assay type: organism-based; conditions: in vivo, 504 h
ECa-109 cell line [23] = assay: Cytotoxicity against human EC109 cells assessed as combination index at 15 uM in presence of 10 nM paclitaxel; assay type: functional
ECa-109 cell line [24] = assay: Induction of apoptosis in human EC109 cells assessed as late apoptotic cells at 15 uM after 24 hrs by Annexin V-FITC/propidium iodide staining based flow cytometry (reference value: 1%); assay type: functional
Mus musculus [25] = assay: Toxicity in nude mouse xenografted with human EC109 cells assessed as effect on spleen at 10 mg/kg in presence of paclitaxel measured after 21 days by histopathological analysis; assay type: organism-based; conditions: in vivo, 504 h
ECa-109 cell line [26] = assay: Antitumor activity against human EC109 cells xenografted in nude mouse assessed as induction of necrosis at 10 mg/kg in presence of paclitaxel measured after 21 days by H and E staining based assay; assay type: functional, organism-based
ECa-109 cell line [27] = assay: Induction of apoptosis in human EC109 cells assessed as decrease in Mcl-1 level at 15 uM in presence of 5 nM paclitaxel by Western blot method; assay type: functional, cell-based
ECa-109 cell line [28] = assay: Induction of apoptosis in human EC109 cells assessed as viable cells at 15 uM after 24 hrs by Annexin V-FITC/propidium iodide staining based flow cytometry (reference value: 96.1%); assay type: functional; conditions: ECa-109, 24 h, read-out: Activity
Mus musculus [29] = assay: Hepatotoxicity in nude mouse xenografted with human EC109 cells assessed as change in serum AST level at 10 mg/kg in presence of paclitaxel measured after 21 days; assay type: toxicity, organism-based; conditions: in vivo, 504 h

## C=C1C(=O)[C@@]23[C@@H]4OC(c5ccc(Cl)cc5)O[C@@]25OC[C@@]2([C@H]([C@@H]5O)C(C)(C)CC[C@@H]2O)[C@@H]3CC[C@@H]14 (some centres undefined)
ECa-109 cell line [1]
  Activity: Active
ECa-109 cell line [2]
  Activity: 9.7%
ECa-109 cell line [3]
  Activity: Active
Mus musculus [4]
  Activity: Non-Toxic
ECa-109 cell line [5]
  Activity: Active
ECa-109 cell line [6]
  Activity: Active
ECa-109 cell line [7]
  Activity: Active
Mus musculus [8]
  Activity: Non-Toxic
ECa-109 cell line [9]
  CI: 1.79
Mus musculus [10]
  Activity: Non-Toxic
Mus musculus [11]
  Activity: Non-Toxic
Mus musculus [12]
  Activity: Non-Toxic
ECa-109 cell line [13]
  CI: 0.37
ECa-109 cell line [14]
  Activity: Active
ECa-109 cell line [15]
  CI: 0.93
ECa-109 cell line [16]
  Activity: Dose-dependent effect
Mus musculus [17]
  Activity: Non-Toxic
ECa-109 cell line [18]
  Activity: Active
ECa-109 cell line [19]
  Activity: Active
Mus musculus [20]
  Activity: Non-Toxic
ECa-109 cell line [21]
  Activity: Active
Mus musculus [22]
  Activity: Non-Toxic
ECa-109 cell line [23]
  CI: 0.68
ECa-109 cell line [24]
  Activity: 5.3%
Mus musculus [25]
  Activity: Non-Toxic
ECa-109 cell line [26]
  Activity: Active
ECa-109 cell line [27]
  Activity: Active
ECa-109 cell line [28]
  viability at 15 µM: 73.1%
Mus musculus [29]
  Activity: Non-Toxic
